Tested on: sympathetic neurons
Assay: toxin-induced degeneration of sympathetic neurons, MTT assay
Format: cell-based, rat
Conditions: 24 hour treatment with the toxin alone
Procedure: Cortical neurons plated for 3-4 days were treated with 300 nM vincristine, a microtubule destabilizer, for 6-72 hours. NGF withdrawal-induced apoptosis and degeneration were assayed between 4-36 hours after the final treatment. Apoptosis and degeneration were assayed using both the MTT assay and the lactate dehydrogenase assay. The MTT (3-(4,5-dimethylthiazol-2-yl)-2,5-diphenyltetrazolium bromide) assay measures cell viability based on mitochondrial function. MTT was added to a total of one tenth of the culture volume to each well and incubated at 37° C. with 5% CO2 for 90-120 minutes. The MTT-containing culture media was aspirated and the cells were resuspended in an equal volume of solubilization solution (10% triton X-100, 1 drop HCl, 50 mL isopropanol). Absorbance (570 and 690 nm) was read using a spectrophotometer. Lactate dehydrogenase (LDH) levels were assayed using a CytoTox non-radioactive LDH assay kit (Promega) to assess the amount of cell death in assays. Fifty μL of media from different treatment conditions were used according to the manufacturer's instructions. […]
Sympathetic cervical ganglia were dissected from postnatal day 1 Sprague-Dawley rats (Charles River Labs) and collected in a dish containing Ultraculture media (Lonza) with 5% fetal bovine serum (Invitrogen). […] The cell slurry was filtered over a […] cell strainer (Falcon) and cell number was counted. […]

CC[C@@]1(O)C(=O)OCc2c1cc1n(c2=O)Cc2cc3ccccc3nc2-1 [camptothecin]
% viability (normalized): 79%

From patent US20160279190A1, “MODULATION OF AXON DEGENERATION” (GENENTECH, INC., priority 2008, published 2016)
